Test results from patent US12157741B2, “Macrocyclic inhibitors of DYRK1A” (DANA-FARBER CANCER INSTITUTE, INC., priority 2018, dated 2024).
Where two headings read alike, the source gives them in different places.

What was measured:
Assay type in all cases: binding
various enzymes [1] = biological target: various enzymes (Homo sapiens, UniProt O00238); details: compound 1 uM
Experimental: (§1) Ambit profiling was conducted in accordance with the manufacturer's instructions.

various enzymes [2] = biological target: various enzymes (Homo sapiens, UniProt O00750); details: compound 1 uM
Experimental: as §1

various enzymes [3] = biological target: various enzymes (Homo sapiens, UniProt O15264); details: compound 1 uM
Sequence of various enzymes (Homo sapiens, UniProt O15264) (O15264 whole entry): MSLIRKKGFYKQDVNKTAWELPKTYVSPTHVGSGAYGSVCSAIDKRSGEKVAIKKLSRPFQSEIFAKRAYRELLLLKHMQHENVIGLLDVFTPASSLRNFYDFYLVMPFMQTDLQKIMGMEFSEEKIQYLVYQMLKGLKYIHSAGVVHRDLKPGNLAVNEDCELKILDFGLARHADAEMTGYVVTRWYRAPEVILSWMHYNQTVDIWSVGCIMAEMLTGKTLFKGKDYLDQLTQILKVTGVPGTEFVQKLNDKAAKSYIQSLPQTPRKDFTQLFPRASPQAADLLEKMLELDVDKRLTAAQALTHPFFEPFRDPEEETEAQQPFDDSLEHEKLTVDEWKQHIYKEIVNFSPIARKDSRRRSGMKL
Experimental: as §1

various enzymes [4] = biological target: various enzymes (Homo sapiens, UniProt P00519, T315I)
Experimental: as §1

various enzymes [5] = biological target: various enzymes (Homo sapiens, UniProt P07332); details: compound 1 uM
Experimental: as §1

various enzymes [6] = biological target: various enzymes (Homo sapiens, UniProt P08922); details: compound 1 uM
Experimental: as §1

various enzymes [7] = biological target: various enzymes (Homo sapiens, UniProt P10721, D816V)
Experimental: as §1

various enzymes [8] = biological target: various enzymes (Homo sapiens, UniProt P15056); details: compound 1 uM
Experimental: as §1

various enzymes [9] = biological target: various enzymes (Homo sapiens, UniProt P16234); details: compound 1 uM
Sequence of various enzymes (Homo sapiens, UniProt P16234) (P16234 24-1089): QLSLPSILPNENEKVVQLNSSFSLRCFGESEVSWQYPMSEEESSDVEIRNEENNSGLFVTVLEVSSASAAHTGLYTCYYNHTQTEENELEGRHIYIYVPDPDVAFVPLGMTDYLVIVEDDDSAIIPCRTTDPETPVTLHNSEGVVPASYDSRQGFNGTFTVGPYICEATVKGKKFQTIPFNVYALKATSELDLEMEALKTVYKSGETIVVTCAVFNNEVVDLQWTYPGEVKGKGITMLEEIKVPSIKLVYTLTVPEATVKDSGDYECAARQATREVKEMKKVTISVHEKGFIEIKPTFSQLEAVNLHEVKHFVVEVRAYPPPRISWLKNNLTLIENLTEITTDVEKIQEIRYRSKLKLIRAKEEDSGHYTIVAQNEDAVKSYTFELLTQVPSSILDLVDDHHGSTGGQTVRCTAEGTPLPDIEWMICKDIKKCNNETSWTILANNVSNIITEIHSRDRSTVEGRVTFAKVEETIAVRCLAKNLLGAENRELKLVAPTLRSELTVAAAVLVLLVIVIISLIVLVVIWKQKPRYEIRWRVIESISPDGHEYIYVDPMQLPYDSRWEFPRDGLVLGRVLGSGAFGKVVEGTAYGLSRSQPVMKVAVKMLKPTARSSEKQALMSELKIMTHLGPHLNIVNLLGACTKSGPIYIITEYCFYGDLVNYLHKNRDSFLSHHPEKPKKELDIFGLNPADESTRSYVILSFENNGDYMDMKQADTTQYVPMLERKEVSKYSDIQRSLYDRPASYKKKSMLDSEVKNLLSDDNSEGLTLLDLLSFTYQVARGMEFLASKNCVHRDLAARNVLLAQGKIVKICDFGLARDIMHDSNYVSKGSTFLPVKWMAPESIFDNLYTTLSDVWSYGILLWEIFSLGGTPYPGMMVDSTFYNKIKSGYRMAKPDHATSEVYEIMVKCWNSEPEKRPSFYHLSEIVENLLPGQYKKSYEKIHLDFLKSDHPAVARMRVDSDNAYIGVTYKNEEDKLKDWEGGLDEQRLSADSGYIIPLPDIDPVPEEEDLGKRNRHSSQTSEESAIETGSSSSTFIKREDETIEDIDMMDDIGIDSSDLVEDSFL
Experimental: as §1

various enzymes [10] = biological target: various enzymes (Homo sapiens, UniProt P19525); details: compound 1 uM
Experimental: as §1

various enzymes [11] = biological target: various enzymes (Homo sapiens, UniProt P22607, G697C)
Experimental: as §1

various enzymes [12] = biological target: various enzymes (Homo sapiens, UniProt P35916); details: compound 1 uM
Experimental: as §1

various enzymes [13] = biological target: various enzymes (Homo sapiens, UniProt P42336, H1047L)
Experimental: as §1

various enzymes [14] = biological target: various enzymes (Homo sapiens, UniProt P51617); details: compound 1 uM
Experimental: as §1

various enzymes [15] = biological target: various enzymes (Homo sapiens, UniProt P51812); details: compound 1 uM
Sequence of various enzymes (Homo sapiens, UniProt P51812) (P51812 whole entry): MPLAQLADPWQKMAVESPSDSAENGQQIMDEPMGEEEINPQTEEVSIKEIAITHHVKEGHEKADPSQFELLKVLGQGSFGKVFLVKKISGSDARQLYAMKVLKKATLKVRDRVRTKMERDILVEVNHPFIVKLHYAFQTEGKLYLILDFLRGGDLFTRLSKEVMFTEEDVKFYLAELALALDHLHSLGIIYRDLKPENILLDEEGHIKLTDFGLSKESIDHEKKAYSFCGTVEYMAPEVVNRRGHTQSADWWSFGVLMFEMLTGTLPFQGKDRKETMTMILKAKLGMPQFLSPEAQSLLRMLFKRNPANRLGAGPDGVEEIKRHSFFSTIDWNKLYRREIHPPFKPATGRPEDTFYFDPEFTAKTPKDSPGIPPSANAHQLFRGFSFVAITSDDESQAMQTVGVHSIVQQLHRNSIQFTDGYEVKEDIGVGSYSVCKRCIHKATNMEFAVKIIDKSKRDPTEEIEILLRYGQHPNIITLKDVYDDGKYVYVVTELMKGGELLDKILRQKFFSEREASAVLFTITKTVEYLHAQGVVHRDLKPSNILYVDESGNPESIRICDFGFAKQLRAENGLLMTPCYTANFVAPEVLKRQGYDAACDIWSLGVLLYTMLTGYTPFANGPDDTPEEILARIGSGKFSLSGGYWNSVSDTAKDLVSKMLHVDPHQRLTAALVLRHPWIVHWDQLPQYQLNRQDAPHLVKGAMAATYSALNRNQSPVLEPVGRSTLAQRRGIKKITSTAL
Experimental: as §1

various enzymes [16] = biological target: various enzymes (Homo sapiens, UniProt P52333); details: compound 1 uM
Experimental: as §1

various enzymes [17] = biological target: various enzymes (Homo sapiens, UniProt P54646); details: compound 1 uM
Experimental: as §1

various enzymes [18] = biological target: various enzymes (Homo sapiens, UniProt Q07002); details: compound 1 uM
Experimental: as §1

various enzymes [19] = biological target: T1, various enzymes (Homo sapiens, UniProt Q12852); details: compound 1 uM
T1 sequence (Q12852 1-859): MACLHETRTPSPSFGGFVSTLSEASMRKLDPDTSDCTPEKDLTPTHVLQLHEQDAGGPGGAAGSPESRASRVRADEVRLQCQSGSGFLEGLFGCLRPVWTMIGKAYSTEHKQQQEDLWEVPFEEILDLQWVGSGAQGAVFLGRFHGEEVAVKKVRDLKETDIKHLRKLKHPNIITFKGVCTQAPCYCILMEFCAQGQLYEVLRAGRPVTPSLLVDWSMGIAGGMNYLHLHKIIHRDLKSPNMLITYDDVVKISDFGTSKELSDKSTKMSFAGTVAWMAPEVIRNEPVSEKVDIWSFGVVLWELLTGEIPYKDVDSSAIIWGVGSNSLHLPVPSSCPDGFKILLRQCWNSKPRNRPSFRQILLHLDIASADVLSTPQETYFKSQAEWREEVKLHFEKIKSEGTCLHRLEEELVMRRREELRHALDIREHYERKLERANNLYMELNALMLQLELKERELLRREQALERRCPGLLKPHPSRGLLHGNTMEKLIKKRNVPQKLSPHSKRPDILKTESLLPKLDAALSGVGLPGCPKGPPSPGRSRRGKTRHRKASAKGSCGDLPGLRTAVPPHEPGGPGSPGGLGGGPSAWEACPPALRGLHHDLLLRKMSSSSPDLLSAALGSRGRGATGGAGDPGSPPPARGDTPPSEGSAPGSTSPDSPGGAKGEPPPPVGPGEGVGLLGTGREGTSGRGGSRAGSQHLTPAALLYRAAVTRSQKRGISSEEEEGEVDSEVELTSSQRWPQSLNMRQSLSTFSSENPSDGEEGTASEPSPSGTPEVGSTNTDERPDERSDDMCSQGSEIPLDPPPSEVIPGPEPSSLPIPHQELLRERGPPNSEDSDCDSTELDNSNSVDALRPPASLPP
Experimental: as §1

various enzymes [20] = biological target: various enzymes (Homo sapiens, UniProt Q13523); details: compound 1 uM
Experimental: as §1

various enzymes [21] = biological target: various enzymes (Homo sapiens, UniProt Q15349); details: compound 1 uM
Sequence of various enzymes (Homo sapiens, UniProt Q15349) (Q15349 whole entry): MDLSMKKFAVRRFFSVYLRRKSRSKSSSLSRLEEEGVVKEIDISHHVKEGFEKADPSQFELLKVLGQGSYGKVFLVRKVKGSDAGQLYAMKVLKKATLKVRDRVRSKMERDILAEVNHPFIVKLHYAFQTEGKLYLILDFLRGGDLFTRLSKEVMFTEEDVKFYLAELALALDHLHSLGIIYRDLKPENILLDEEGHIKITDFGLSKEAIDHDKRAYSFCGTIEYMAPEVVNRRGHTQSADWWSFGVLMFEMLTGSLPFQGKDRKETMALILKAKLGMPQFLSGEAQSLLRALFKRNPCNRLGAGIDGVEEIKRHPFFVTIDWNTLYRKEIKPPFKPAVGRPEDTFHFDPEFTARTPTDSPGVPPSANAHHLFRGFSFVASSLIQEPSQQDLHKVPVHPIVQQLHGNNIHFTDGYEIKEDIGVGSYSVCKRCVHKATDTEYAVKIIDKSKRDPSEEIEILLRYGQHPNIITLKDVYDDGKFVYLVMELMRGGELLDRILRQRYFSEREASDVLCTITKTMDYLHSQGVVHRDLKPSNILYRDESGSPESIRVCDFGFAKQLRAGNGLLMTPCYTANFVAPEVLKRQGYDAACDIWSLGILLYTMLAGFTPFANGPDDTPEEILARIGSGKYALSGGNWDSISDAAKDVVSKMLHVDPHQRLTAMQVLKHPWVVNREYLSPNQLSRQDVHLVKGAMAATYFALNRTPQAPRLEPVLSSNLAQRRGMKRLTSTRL
Experimental: as §1

various enzymes [22] = biological target: various enzymes (Homo sapiens, UniProt Q8TDC3); details: compound 1 uM
Experimental: as §1

various enzymes [23] = biological target: various enzymes (Homo sapiens, UniProt Q8TDR2); details: compound 1 uM
Experimental: as §1

various enzymes [24] = biological target: various enzymes (Homo sapiens, UniProt Q8TDX7); details: compound 1 uM
Sequence of various enzymes (Homo sapiens, UniProt Q8TDX7) (Q8TDX7 whole entry): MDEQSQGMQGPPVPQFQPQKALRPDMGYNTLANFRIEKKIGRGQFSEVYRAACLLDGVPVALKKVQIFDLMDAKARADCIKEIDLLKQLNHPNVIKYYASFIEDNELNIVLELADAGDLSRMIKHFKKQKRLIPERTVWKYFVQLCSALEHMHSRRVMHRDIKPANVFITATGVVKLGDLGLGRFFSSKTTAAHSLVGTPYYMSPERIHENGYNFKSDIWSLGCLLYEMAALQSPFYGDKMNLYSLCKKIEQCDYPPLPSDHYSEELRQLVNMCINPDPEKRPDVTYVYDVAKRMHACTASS
Experimental: as §1

various enzymes [25] = biological target: various enzymes (Homo sapiens, UniProt Q8TF76); details: compound 1 uM
Experimental: as §1

various enzymes [26] = biological target: various enzymes (Homo sapiens, UniProt Q96J92); details: compound 1 uM
Experimental: as §1

various enzymes [27] = biological target: various enzymes (Homo sapiens, UniProt Q96RR4); details: compound 1 uM
Experimental: as §1

various enzymes [28] = biological target: various enzymes (Homo sapiens, UniProt Q9BQI3); details: compound 1 uM
Experimental: as §1

various enzymes [29] = biological target: various enzymes (Homo sapiens, UniProt Q9HC98); details: compound 1 uM
Experimental: as §1

various enzymes [30] = biological target: various enzymes (Homo sapiens, UniProt Q9UM73); details: compound 1 uM
Sequence of various enzymes (Homo sapiens, UniProt Q9UM73) (Q9UM73 19-1620): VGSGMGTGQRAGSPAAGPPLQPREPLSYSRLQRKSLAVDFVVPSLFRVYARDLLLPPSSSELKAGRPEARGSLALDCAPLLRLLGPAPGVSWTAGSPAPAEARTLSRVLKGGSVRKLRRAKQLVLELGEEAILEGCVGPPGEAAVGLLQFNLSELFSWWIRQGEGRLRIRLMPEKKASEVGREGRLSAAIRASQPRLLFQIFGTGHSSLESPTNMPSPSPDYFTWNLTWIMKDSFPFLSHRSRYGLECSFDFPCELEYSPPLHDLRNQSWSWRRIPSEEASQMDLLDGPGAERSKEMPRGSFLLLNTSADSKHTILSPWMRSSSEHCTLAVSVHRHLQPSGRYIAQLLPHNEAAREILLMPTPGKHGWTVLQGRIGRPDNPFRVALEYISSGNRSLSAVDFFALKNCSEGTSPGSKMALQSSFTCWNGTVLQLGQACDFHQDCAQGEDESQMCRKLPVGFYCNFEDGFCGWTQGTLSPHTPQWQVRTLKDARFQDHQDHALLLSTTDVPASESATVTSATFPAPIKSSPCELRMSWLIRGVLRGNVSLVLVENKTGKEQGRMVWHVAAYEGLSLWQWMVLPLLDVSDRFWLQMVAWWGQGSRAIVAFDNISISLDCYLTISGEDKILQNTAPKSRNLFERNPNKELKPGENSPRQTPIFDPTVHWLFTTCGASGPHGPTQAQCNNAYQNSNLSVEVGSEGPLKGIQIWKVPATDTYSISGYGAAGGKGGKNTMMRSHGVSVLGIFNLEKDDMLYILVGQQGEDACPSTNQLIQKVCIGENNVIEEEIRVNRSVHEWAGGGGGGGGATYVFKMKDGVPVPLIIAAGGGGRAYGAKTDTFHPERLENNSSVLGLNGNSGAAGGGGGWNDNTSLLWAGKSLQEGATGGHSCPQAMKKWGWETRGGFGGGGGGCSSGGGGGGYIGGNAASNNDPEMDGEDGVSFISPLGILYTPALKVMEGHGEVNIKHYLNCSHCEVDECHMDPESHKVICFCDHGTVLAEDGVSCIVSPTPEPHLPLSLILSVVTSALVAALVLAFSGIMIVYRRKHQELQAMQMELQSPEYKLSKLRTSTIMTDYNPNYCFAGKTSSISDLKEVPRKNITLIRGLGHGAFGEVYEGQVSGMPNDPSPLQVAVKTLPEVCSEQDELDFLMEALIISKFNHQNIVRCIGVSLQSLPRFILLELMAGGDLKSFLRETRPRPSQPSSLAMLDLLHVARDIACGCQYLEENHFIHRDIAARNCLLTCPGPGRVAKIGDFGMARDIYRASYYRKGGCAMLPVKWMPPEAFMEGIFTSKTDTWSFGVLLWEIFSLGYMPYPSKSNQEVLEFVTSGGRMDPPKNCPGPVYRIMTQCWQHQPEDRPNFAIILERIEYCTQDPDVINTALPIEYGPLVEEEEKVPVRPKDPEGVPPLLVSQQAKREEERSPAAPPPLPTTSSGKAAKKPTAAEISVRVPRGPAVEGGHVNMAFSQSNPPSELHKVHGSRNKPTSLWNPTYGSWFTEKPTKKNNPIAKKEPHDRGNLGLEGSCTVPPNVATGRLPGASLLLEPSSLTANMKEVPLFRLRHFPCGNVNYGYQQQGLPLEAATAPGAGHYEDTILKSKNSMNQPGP
Experimental: as §1

various enzymes [31] = biological target: various enzymes (Homo sapiens, UniProt Q9UM73, L1196M)
Sequence of various enzymes (Homo sapiens, UniProt Q9UM73, L1196M) (Q9UM73 19-1620 L1196M): as the sequence (Q9UM73 19-1620) above, with L1178M counted along it
Experimental: as §1

various enzymes [32] = biological target: various enzymes (Homo sapiens, UniProt Q9Y2H1); details: compound 1 uM
Experimental: as §1

SMILES | Ambit profiling: BMPR1B (various enzymes [1]) | Ambit profiling: PIK3C2B (various enzymes [2]) | Ambit profiling: p38-delta (various enzymes [3]) | Ambit profiling: FES (various enzymes [5]) | Ambit profiling: ROS1 (various enzymes [6]) | Ambit profiling: BRAF (various enzymes [8]) | Ambit profiling: PDGFRA (various enzymes [9]) | Ambit profiling: PRKR (various enzymes [10]) | Ambit profiling: FLT4 (various enzymes [12]) | Ambit profiling: IRAK1 (various enzymes [14]) | Ambit profiling: RSK2(Kin.Dom.1-N-terminal) (various enzymes [15]) | Ambit profiling: RSK2(Kin.Dom.2-C-terminal) (various enzymes [15]) | Ambit profiling: JAK3(JH1domain-catalytic) (various enzymes [16]) | Ambit profiling: AMPK-alpha2 (various enzymes [17]) | Ambit profiling: PCTK3 (various enzymes [18]) | Ambit profiling: DLK (various enzymes [19]) | Ambit profiling: PRP4 (various enzymes [20]) | Ambit profiling: RSK3(Kin.Dom.1-N-terminal) (various enzymes [21]) | Ambit profiling: RSK3(Kin.Dom.2-C-terminal) (various enzymes [21]) | Ambit profiling: BRSK1 (various enzymes [22]) | other results
CC(C)N1Cc2nn(C)cc2-c2cnc3[nH]cc(c3c2)-c2cn(nc2C(F)(F)F)CCCC1=O [Compound 45, (Z)-5-isopropyl-31-methyl-13-(trifluoromethyl)-11H,21H,31H-5-aza-2(3,5)-pyrrolo[2,3-b]pyridina-1(4,1),3(4,3)-dipyrazolacyclononaphan-6-one] | 6.8 | 92 | 100 | 74 | 11 | 100 | 11 | 71 | 0.1 | 1.4 | 0.9 | 100 | 0 | 87 | 30 | 32 | 36 | 4.7 | 96 | 100 | Ambit profiling: ABL1(T315I)-nonphosphorylated (various enzymes [4]; compound 1 uM): 9.4; Ambit profiling: ABL1(T315I)-phosphorylated (various enzymes [4]; compound 1 uM): 11; Ambit profiling: KIT(D816V) (various enzymes [7]; compound 1 uM): 4.2; Ambit profiling: FGFR3(G697C) (various enzymes [11]; compound 1 uM): 4.5; Ambit profiling: PIK3CA(H1047L) (various enzymes [13]; compound 1 uM): 100; Ambit profiling: STK35 (various enzymes [23]): 100; Ambit profiling: NEK7 (various enzymes [24]): 97; Ambit profiling: HASPIN (various enzymes [25]): 2.3; Ambit profiling: WNK4 (various enzymes [26]): 97; Ambit profiling: CAMKK2 (various enzymes [27]): 5.8; Ambit profiling: EIF2AK1 (various enzymes [28]): 100; Ambit profiling: NEK6 (various enzymes [29]): 98; Ambit profiling: ALK (various enzymes [30]): 18; Ambit profiling: ALK(L1196M) (various enzymes [31]; compound 1 uM): 18; Ambit profiling: NDR2 (various enzymes [32]): 92
COc1c2c(nn1C)CN(C(C)C)C(=O)CCCn1cc(c(C(F)(F)F)n1)-c1c[nH]c3ncc-2cc13 [Compound 50, (Z)-5-isopropyl-35-methoxy-31-methyl-13-(trifluoromethyl)-11H,21H,31H-5-aza-2(3,5)-pyrrolo[2,3-b]pyridina-1(4,1),3(4,3)-dipyrazolacyclononaphan-6-one] | 5.1 | 100 | 99 | 31 | 5.1 | 87 | 5.6 | 84 | 0.1 | 2.1 | 1.2 | 100 | 0 | 57 | 69 | 25 | 87 | 4 | 80 | 89 | Ambit profiling: ABLT(T315I)-nonphosphorylated (various enzymes [4]): 8.8; Ambit profiling: ABLT(T315I)-phosphorylated (various enzymes [4]): 4.9; Ambit profiling: KIT(D816V) (various enzymes [7]): 0.35; Ambit profiling: FGFR3(G697C) (various enzymes [11]): 6.4; Ambit profiling: PIK3CA(H1047L) (various enzymes [13]): 83; Ambit profiling: STK35 (various enzymes [23]): 94; Ambit profiling: NEK7 (various enzymes [24]): 68; Ambit profiling: HASPIN (various enzymes [25]): 42; Ambit profiling: WNK4 (various enzymes [26]): 100; Ambit profiling: CAMKK2 (various enzymes [27]): 5.8; Ambit profiling: EIF2AK1 (various enzymes [28]): 66; Ambit profiling: NEK6 (various enzymes [29]): 100; Ambit profiling: ALK (various enzymes [30]): 21; Ambit profiling: ALK(L1196M) (various enzymes [31]): 12; Ambit profiling: NDR2 (various enzymes [32]): 78
